Assay results: patent US8048869B2, “Pharmaceutical composition for use in hormone replacement therapy” (Pantarhei Bioscience B.V., priority 2001, dated 2011)

How the values were obtained:
[1] = target: T1, rat uterine nuclear estrogen receptor (Rattus norvegicus, UniProt P06211); conditions: cited from earlier work
T1 construct: host or cells: rat uterus (cytosol and nuclear fractions), Martucci et al. 1976
T1 sequence (P06211 1-600): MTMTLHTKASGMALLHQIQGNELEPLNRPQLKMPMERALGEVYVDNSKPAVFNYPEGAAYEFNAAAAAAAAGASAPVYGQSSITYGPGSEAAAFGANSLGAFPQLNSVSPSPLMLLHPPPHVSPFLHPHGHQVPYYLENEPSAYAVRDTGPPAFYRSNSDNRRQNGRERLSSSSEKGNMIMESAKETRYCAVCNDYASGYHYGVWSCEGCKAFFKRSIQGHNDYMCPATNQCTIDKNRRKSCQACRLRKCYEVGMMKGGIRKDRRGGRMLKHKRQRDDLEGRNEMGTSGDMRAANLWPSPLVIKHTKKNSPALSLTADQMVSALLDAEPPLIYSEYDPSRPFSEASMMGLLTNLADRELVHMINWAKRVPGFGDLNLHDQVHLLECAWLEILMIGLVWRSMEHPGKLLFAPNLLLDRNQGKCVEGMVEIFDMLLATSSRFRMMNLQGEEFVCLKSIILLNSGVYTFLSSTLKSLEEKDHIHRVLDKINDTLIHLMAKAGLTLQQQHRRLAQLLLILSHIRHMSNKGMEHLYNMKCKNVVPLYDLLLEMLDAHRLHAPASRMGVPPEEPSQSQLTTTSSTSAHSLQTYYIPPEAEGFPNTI

[2] = tested on: OVX-rats; test: Indentation test of distal femur (bone biomechanical strength), OVX rat; assay type: in vivo; conditions: 4 weeks; for Energy / Maximum load / Stiffness / Ultimate strength: po, distal femur
Experimental: The ovariectomized aged rat was used as a model for the human disease osteoporosis. This is an established animal model, recommended by the United States Food and Drug Administration (FDA), to evaluate and assess potential agents for osteoporosis prevention and therapy. The anti-resorptive efficacy of estetrol (E4) was tested by ex vivo measuring total and trabecular bone mineral density and bone strength after 4 weeks of treatment at necropsy. 17α-ethinyl-estradiol (EE) and vehicle (1% ethanol/arachidis oil) served as controls in this bioassay.
Three months old female Sprague-Dawley rats were either sham-operated (Sham) or ovariectomized (OVX) one day prior to commencement of the dosing study. Animals were anesthetized using a ketamine/xylazine anesthetic mixture and underwent a bilateral ovariectomy or were sham-treated. A section of hair on the dorsal surface was shaved and an incision made overlying the lumbar region of the spine. The skin was separated from the underlying fascia so that a second incision could be made through the abdominal musculature approximately caudal to the kidneys. The ovaries were then exteriorized and removed and the musculature was closed with a single suture. The skin incision was closed using surgical staples.
Ten animals per treatment group were orally dosed once per day for four consecutive weeks. The dosing commenced 1 day after surgical removal of the ovaries and was administered by oral gavage using a syringe and stainless steel gavage needle at doses of 0.1 mg/kg /day EE, or either 2.5, 0.5 or 0.1 mg/kg/day E4. Vehicle control was daily administered to one group of OVX-animals and sham-operated rats. After treatment, anesthetized rats were subjected to cardiac puncture and asphyxiated by CO2 inhalation. Tibiae and femura were removed, cleaned of soft-tissue and fixed and stored in 70% ethanol/saline at 4° C. (tibia) or saline at 4° C. (femura) until fuirther analysis.
Ex vivo evaluation of bone biomechanical strength was performed with an indentation test at the distal femura. Prior to mechanical testing femura were rinsed in cold saline and carefully cleaned of any remaining adherent soft tissue. A 3-mm segment of the distal femoral metaphysis was cut directly proximal to the femoral condyle with a low-speed diamond saw under constant saline irrigation. The load was applied with a cylindrical indenter (with a flat testing face of 1.6 mm diameter) to the center of marrow cavity on the distal face of the segment. The indenter was allowed to penetrate the cavity at a constant displacement of 6 mm/min to a depth of 2 mm before load reversal.
The maximum load, stiffness and energy absorbed were determined from load displacement curves. Ultimate strength was calculated by dividing the maximum load by the indenter area. Furthermore, mean ultimate strength values are depicted in FIG. 2. […] Reductions in maximum load, stiffness, energy and ultimate strength were −68%, −68%, −27% and −68%, respectively, clearly accompanying the bone mineral density loss in estrogen deficient rats.

C[C@]12CC[C@@H]3c4ccc(O)cc4CC[C@H]3[C@@H]1[C@@H](O)[C@@H](O)[C@@H]2O [E4, 1,3,5 (10)-estratrien-3,15α,16α,17β-tetrol]
relative binding affinity, 17β-estradiol = 100% [1]: 0.3% | effect on declines in maximum load, stiffness, energy and ultimate strength ([2]; oral treatment, dose-dependent): prevented the declines in maximum load, stiffness, energy and ultimate strength | Energy ([2]; 0.1 mg/kg/day): 0.09 mJ | Maximum load ([2]; 0.1 mg/kg/day): 1.50 N | Stiffness ([2]; 0.1 mg/kg/day): 28.00 N/mm | Ultimate strength ([2]; 0.1 mg/kg/day): 0.80 N/mm2 | Energy ([2]; 0.5 mg/kg/day): 0.31 mJ | Maximum load ([2]; 0.5 mg/kg/day): 7.25 N | Stiffness ([2]; 0.5 mg/kg/day): 132.57 N/mm | Ultimate strength ([2]; 0.5 mg/kg/day): 3.85 N/mm2
